Results: patent US8263757B2, “Promiscuous HER-2/Neu CD4 T cell epitopes” (Dendreon Corporation, priority 2006, dated 2012)

What was measured:
[1] = tested on: T cell clone HER500.23c21; assay: Epitope mapping of clone HER500.23c21 with individual HER500 15-mer peptides and autologous EBV-LcL (IFNγ ELISA, IL-2 by HT-2 proliferation); type: cell-based, human; conditions: each peptide 1 ug/ml; autologous EBV LCL cells as antigen presenting cells
Experimental: FIG. 2. T cell clone HER500.23.21 is specific for Peptide #63 (HERp270-284). The HER-2/neu epitope was mapped for clone HER500.23.21 and specificity was determined using autologous EBV-LcLs and each individual HER500 peptide #1-125 (15 amino acids in length). The assay was set up in 96 well round bottom plates with autologous EBV-LcLs at 2×10^5 cells/well and the T cell clone HER500.23.21 added at 1×10^5 cells/well. Each peptide was used at a final concentration of 1 ug/mL. The assay was incubated at 37° C. with 5% CO2 for 48 hours at which time supernatant was removed to test for cytokine production. (A) IFNγ production by clone HER500.23.21 was measured using ELISA, calculated pg/mL is shown for each HER500 peptide. (B) IL-2 production was measured using HT-2 cell proliferation.
Identification and Characterization of HER-2/neu specific T cell clones. […]
Cytokine Production. […] IL-2 production was measured using the IL-2 dependent line HT-2 (ATCC). […] TdR was added for the final 6 hours of the assay and plates were harvested to glass fiber filter mats and DNA incorporation of the radioisotope, or proliferative response, was determined by counts per minute using a liquid scintillation counter (PerkinElmer Life and Analytical Sciences, Inc. Boston, Mass.). IFNγ production was measured using anti-human IFNγ antibody pairs for ELISA (BD Pharmingen, San Diego, Calif.). […]

[2] = tested on: T cell clone HER500.23c21; assay: HLA-DR promiscuity: HERp270-284 presented by EBV-LcL lines homozygous for HLA-DRB1* alleles to HER500.23c21 (IFNγ ELISA); type: cell-based, human
Experimental: FIG. 4. HERp270-284 is a promiscuous MHC Class II HER-2/Neu epitope. (A) EBV-LcL lines homozygous for various HLA-DR alleles were tested for their ability to present HERp270-284 to clone HER500.23c21. Antigen-specific IFNγ production by HER500.23c21 was above the upper detection limit of the IFNγ ELISA (4000 pg/mL) with all EBV-LcL lines. […] The assay was set up in 96 well round bottom plates in cRPMI+10% FBS with 2×10^5 EBV-LcL/well and 1×10^5 HER500.23c21 cells/well. Peptides were used at a final concentration of 1 μg/mL. The assay was incubated for 48 hours at 37° C. with 5% CO2. Supernatants were harvested, frozen at −20° C. and then analyzed for IFNγ by ELISA. Results are shown for one representative experiment. (B) HERp270-284 was titrated with each EBV LcL line to determine the sensitivity of HER500.23c21 to different alleles. The assay was set up as in (A) except HERp270-284 concentrations are: 10 ng/mL, 33 ng/mL, 66 ng/mL, 100 ng/mL and 250 ng/mL. […] Results are shown for one representative experiment.
Cytokine Production. To determine cytokine production in the antigen specific stimulation assays, after 48 hours, 200 μL of supernatant was pulled from cultures and tested for both IL-2 and IFNγ production. IL-2 production was measured using the IL-2 dependent line HT-2 (ATCC). HT-2 cells were grown in IMDM with 10% FBS and 100 uM NEAA, 1 mM Sodium Pyruvate, 2 mM L-glutamine, […], 50 U/mL Streptomycin, 20 mM HEPES and 20 uM 2-Mercaptoethanol (cIMDM+10% FBS) and fed twice a week with 20 ng/mL rIL-2. For the assay, 4 days after HT-2 cells were split, cells were washed with IMDM+10% FBS to remove all rIL-2, and cells were added to 96 well round bottom plates at 1×10^4 cells/well in cIMDM+10% FBS. Supernatants from antigen specific stimulation were added to wells and plates were incubated 24-30 hours at 37° C. The following day 1 μCi of ^3[H] TdR was added for the final 6 hours of the assay and plates were harvested to glass fiber filter mats and DNA incorporation of the radioisotope, or proliferative response, was determined by counts per minute using a liquid scintillation counter (PerkinElmer Life and Analytical Sciences, Inc. Boston, Mass.). IFNγ production was measured using anti-human IFNγ antibody pairs for ELISA (BD Pharmingen, San Diego, Calif.). Briefly, Immulon 4 plates (Thermo Labsystems/VWR, Brisbane, Calif.) were coated overnight with purified anti-human IFNγ antibody (NIB42) at 3 μg/mL. The next day coating antibody was discarded and 4% Bovine Serum Albumin (BSA) (Sigma, St. Louis, Mo.) in PBS (Invitrogen) was added to wells and plates were incubated for 2 hours at 37° C. Plates were washed with PBS+0.05% Tween 20 and 100 μL of supernatant samples from the antigen specific stimulation was added to wells and incubated at room temperature for 1.25-2 hours. Plates were washed and biotinylated anti-human IFNγ antibody (4S.B3) was diluted in 1% BSA in PBS (1 μg/mL) and added to plates for 1 hour at room temperature. After washing plates, Strep-Avidin HRP (BD Pharmingen) was diluted 1:1000 in PBST and added to wells for 30 minutes at room temperature. Finally, plates were washed and Sigma® Fast OPD was added for 15 minutes in the dark. 2M HCl was added to stop the reaction and plates were read for absorbance at 492 nm on a spectrophotometer.
HLA-DR Restriction and Promiscuity. To determine HLA-DR restriction of the T cell epitope HERp270-284, anti-HLA-DR mAb L243, HLA-DQ mAb 1a3 or HLA-DP mAb B7/21 (20-1.25 μg/mL) were cultured with T cell clone HER.23c21, peptide HERp270-284 and autologous EBV-LcL in cRPMI+10% FBS media. Supernatants were harvested after 48 hours and tested for IL-2 and IFNγ production. HERp270-284 was also tested for HLA-DR promiscuity using EBV-LcL lines purchased from the European Collection of Cell Cultures originating from the 12th International Histocompatibility Workshop (IHW) held in Strasbourg, France. […]

ALVTYNTDTFESMPN (HER-2/Neu peptide 270-284, HER500 peptide #63, HERp270-284, HER-2/Neu epitope 270-284, residues 3-17 of SEQ ID NO1) [Peptide 63]
response of HER500.23c21 measured by IFNγ or IL2 production [1]: responded to only one individual peptide | T cell response induced, regardless of the EBV-LCL line used ([2]; 1 ug/ml peptide): maximal T cell response | IFNγ production by HER500.23c21 (ELISA), peptide titration ([2]; all HERp270-284 concentrations above 250 ng/mL, each EBV LcL line): > 4000 pg/mL | lowest peptide concentration able to stimulate Her500.23c21 ([2]; allele DRB1*0401): 10 ng/mL | peptide concentration below which allele was unable to stimulate Her500.23c21 ([2]; allele DRB1*1103): ≥ 250 ng/mL | number of HLA-DRB1* alleles for which the epitope is promiscuous (presented to HER500.23c21) ([2]; panel of 25 EBV LcL lines homozygous for different HLA-DRB1* alleles, 13 DR serological families): at least 25 | Antigen-specific IFNγ production by HER500.23c21 (ELISA) ([2]; peptide 1 μg/mL, all EBV-LcL lines, 48 hours, upper detection limit 4000 pg/mL): > 4000 pg/mL
